Results on 21 compounds are retold here after US20250186437A1, “CARBOLINE COMPOUNDS AND USE THEREOF” (PTC Therapeutics, Inc., priority 2021, published 2025).

In this assay the test system is MOLM-13 cells. As to the kind of experiment: MOLM-13 Cell Proliferation Assay (indicator of DHODH inhibition). Format: cell-based. The note with it: Homo sapiens, 72 Hours of culture, CellTiter-Glo, no uridine. In outline: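 Proliferation readout via CellTiter-Glo luminescence after 72 h compound treatment (37 °C, 5% CO2, 0.5% DMSO) of MOLM-13 cells seeded at 10^4 per well in RPMI 1640/10% FBS, used as a DHODH-inhibition indicator since these cells rely on de novo pyrimidine synthesis.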

As usually defined, the IC50 is the concentration that gives 50% inhibition. A higher IC50 goes with weaker potency.

`CSc1nc(N2CCc3c([nH]c4ccc(F)cc34)C2c2ccc(C)c(F)c2F)nc(C(F)(F)F)n1` (stereo not drawn) [Compound 495, 1-(2,3-difluoro-4-methylphenyl)-6-fluoro-2-[4-(methylsulfanyl)-6-(trifluoromethyl)-1,3,5-triazin-2-yl]-2,3,4,9-tetrahydro-1H-pyrido[3,4-b]indole] gave an IC50 of 8.8 nM. The compound `Cc1cnn(-c2ccc3[nH]c4c(c3c2)CCN(c2nc(C(F)(F)F)cc(C(F)(F)F)n2)C4c2cnc(N3CCOCC3)nc2)n1` (stereo not drawn) [Compound 483, 2-[4,6-bis(trifluoromethyl)pyrimidin-2-yl]-6-(4-methyl-2H-1,2,3-triazol-2-yl)-1-[2-(morpholin-4-yl)pyrimidin-5-yl]-2,3,4,9-tetrahydro-1H-pyrido[3,4-b]indole] yielded an IC50 of 8.5 nM. `Fc1ccc(C2c3[nH]c4ccc(Cl)c(F)c4c3CCN2c2nccc(C(F)(F)F)n2)c(F)n1` (stereo not drawn) [Compound 186, 6-chloro-1-(2,6-difluoropyridin-3-yl)-5-fluoro-2-[4-(trifluoromethyl)pyrimidin-2-yl]-2,3,4,9-tetrahydro-1H-pyrido[3,4-b]indole] gave an IC50 of 3 nM. As to `Cc1nc(N2CCc3c([nH]c4cc(F)c(Cl)cc34)C2c2cccc(F)c2F)ncc1F` (stereo not drawn) [Compound 124, 6-chloro-1-(2,3-difluorophenyl)-7-fluoro-2-(5-fluoro-4-methylpyrimidin-2-yl)-2,3,4,9-tetrahydro-1H-pyrido[3,4-b]indole], half-maximal inhibition (IC50) required 8.6 nM. Next, `Cc1ccc(C2c3[nH]c4ccc(Cl)c(F)c4c3CCN2c2nccc(Cl)n2)cc1` (stereo not drawn) [Compound 28, 6-chloro-2-(4-chloropyrimidin-2-yl)-5-fluoro-1-(4-methylphenyl)-2,3,4,9-tetrahydro-1H-pyrido[3,4-b]indole]: 4.4 nM; `FC(F)(F)c1cnnc(N2CCc3c([nH]c4ccc(Cl)cc34)C2c2ccc(N3CCOCC3)nc2)n1` (stereo not drawn) [Compound 429, 6-chloro-1-[6-(morpholin-4-yl)pyridin-3-yl]-2-[5-(trifluoromethyl)-1,2,4-triazin-3-yl]-2,3,4,9-tetrahydro-1H-pyrido[3,4-b]indole]: 1.6 nM. For `Fc1cc2[nH]c3c(c2cc1Cl)CCN(c1ncc(Cl)cn1)C3c1ccc(Cl)cc1` (stereo not drawn) [Compound 29, 6-chloro-1-(4-chlorophenyl)-2-(5-chloropyrimidin-2-yl)-7-fluoro-2,3,4,9-tetrahydro-1H-pyrido[3,4-b]indole], the IC50 was 39.1 nM. For `Cc1cc(Cl)nc(N2CCc3c([nH]c4cc(F)c(Cl)cc34)C2c2ccc(F)cc2)n1` (stereo not drawn) [Compound 46, 6-chloro-2-(4-chloro-6-methylpyrimidin-2-yl)-7-fluoro-1-(4-fluorophenyl)-2,3,4,9-tetrahydro-1H-pyrido[3,4-b]indole] the value was 6.5 nM; for `COc1ncc([C@H]2c3[nH]c4ccc(Cl)cc4c3CCN2c2nc(C(F)(F)F)nc(C(F)(F)F)n2)cn1` [Compound 522, (1S)-2-[4,6-bis(trifluoromethyl)-1,3,5-triazin-2-yl]-6-chloro-1-(2-methoxypyrimidin-5-yl)-2,3,4,9-tetrahydro-1H-pyrido[3,4-b]indole], 0.7 nM. Next, `FC(F)c1ccnc(N2CCc3c([nH]c4ccc(Cl)cc34)C2c2cnc(N3CCOCC3)nc2)n1` (stereo not drawn) [Compound 334, 6-chloro-2-[4-(difluoromethyl)pyrimidin-2-yl]-1-[2-(morpholin-4-yl)pyrimidin-5-yl]-2,3,4,9-tetrahydro-1H-pyrido[3,4-b]indole]: 13 nM; `Fc1ccc(C2c3[nH]c4ccc(Cl)cc4c3CCN2c2ncc(Cl)cn2)cc1` (stereo not drawn) [Compound 1, 6-chloro-2-(5-chloropyrimidin-2-yl)-1-(4-fluorophenyl)-2,3,4,9-tetrahydro-1H-pyrido[3,4-b]indole]: 31.8 nM; `CC(C)c1ccnc(N2CCc3c([nH]c4cc(F)c(Cl)cc34)C2c2ccc(F)cc2)n1` (stereo not drawn) [Compound 23, 6-chloro-7-fluoro-1-(4-fluorophenyl)-2-[4-(propan-2-yl)pyrimidin-2-yl]-2,3,4,9-tetrahydro-1H-pyrido[3,4-b]indole]: 45.4 nM. Consider `Cc1ccc(C2c3[nH]c4cc(F)c(Cl)cc4c3CCN2c2nc(C)cc(C)n2)cc1` (stereo not drawn) [Compound 66, 6-chloro-2-(4,6-dimethylpyrimidin-2-yl)-7-fluoro-1-(4-methylphenyl)-2,3,4,9-tetrahydro-1H-pyrido[3,4-b]indole], for which the IC50 is 9.7 nM. For `Cc1ccc([C@H]2c3[nH]c4ccc(Cl)cc4c3CCN2c2nc(CO)nc(C(F)(F)F)n2)c(F)c1F` [Compound 521, {4-[(1S)-6-chloro-1-(2,3-difluoro-4-methylphenyl)-1,3,4,9-tetrahydro-2H-pyrido[3,4-b]indol-2-yl]-6-(trifluoromethyl)-1,3,5-triazin-2-yl}methanol] the value was 3.3 nM; for `COC(=O)c1nc(N2CCc3c([nH]c4ccc(Cl)cc34)[C@@H]2c2ccc(C)c(F)c2F)nc(C(F)(F)F)n1` [Compound 504, methyl 4-[(1S)-6-chloro-1-(2,3-difluoro-4-methylphenyl)-1,3,4,9-tetrahydro-2H-pyrido[3,4-b]indol-2-yl]-6-(trifluoromethyl)-1,3,5-triazine-2-carboxylate], 30.6 nM; for `Cc1ccc(C2c3[nH]c4ccc(Cl)c(F)c4c3CCN2c2nc(C)c(F)c(C)n2)cc1` (stereo not drawn) [Compound 116, 6-chloro-5-fluoro-2-(5-fluoro-4,6-dimethylpyrimidin-2-yl)-1-(4-methylphenyl)-2,3,4,9-tetrahydro-1H-pyrido[3,4-b]indole], 6.7 nM.

Consider `CN(C)c1nc(N2CCc3c([nH]c4ccc(Cl)cc34)[C@@H]2c2ccc(N3CCOCC3)nc2)nc(C(F)(F)F)n1` [Compound 443, 4-{(1S)-6-chloro-1-[6-(morpholin-4-yl)pyridin-3-yl]-1,3,4,9-tetrahydro-2H-pyrido[3,4-b]indol-2-yl}-N,N-dimethyl-6-(trifluoromethyl)-1,3,5-triazin-2-amine], for which the IC50 is 3.1 nM.

`C=Cc1ccc2[nH]c3c(c2c1)CCN(c1nccc(C(F)(F)F)n1)C3c1ccc(C)cc1` (stereo not drawn) [Compound 291, 6-ethenyl-1-(4-methylphenyl)-2-[4-(trifluoromethyl)pyrimidin-2-yl]-2,3,4,9-tetrahydro-1H-pyrido[3,4-b]indole] displayed an IC50 of 4.4 nM. With `Cc1ccc(C2c3[nH]c4ccc(Cl)c(F)c4c3CCN2c2nc(C)c(F)c(C)n2)c(F)c1F` (stereo not drawn) [Compound 118, 6-chloro-1-(2,3-difluoro-4-methylphenyl)-5-fluoro-2-(5-fluoro-4,6-dimethylpyrimidin-2-yl)-2,3,4,9-tetrahydro-1H-pyrido[3,4-b]indole], the IC50 was found to be 1 nM.

Consider `Fc1cnc(N2CCc3c([nH]c4cc(F)c(Cl)cc34)C2c2ccc(F)c(F)c2)nc1` (stereo not drawn) [Compound 37, 6-chloro-1-(3,4-difluorophenyl)-7-fluoro-2-(5-fluoropyrimidin-2-yl)-2,3,4,9-tetrahydro-1H-pyrido[3,4-b]indole], for which the IC50 turned out to be 89.6 nM. Consider `Cc1ccc(C2c3[nH]c4ccc(Cl)c(F)c4c3CCN2c2nc(C(F)(F)F)cc(C(F)(F)F)n2)c(F)c1F` (stereo not drawn) [Compound 209, 2-[4,6-bis(trifluoromethyl)pyrimidin-2-yl]-6-chloro-1-(2,3-difluoro-4-methylphenyl)-5-fluoro-2,3,4,9-tetrahydro-1H-pyrido[3,4-b]indole], for which the IC50 was determined as 0.8 nM.
